A melting point compilation (Tetko et al.; mined from patent text by program, amines drawn as free bases though some values may be those of a salt)

melting point [°C] | Compound
153 | CCC1=C(C)CN(C(=O)NCC2CCOc3cc(OC)c(S(=O)(=O)NC(=S)NC(C)C)cc32)C1=O (stereo unspecified)
140 to 142 | COC(=O)CCC(=O)c1ccc(-c2ccc(C(F)(F)F)cc2)cc1
100 to 102 | CC(C)(C)OC(=O)c1ccc(C(=O)O)cc1
165 | CC(=O)OC1CSC(Oc2ccc(-c3cnoc3C)nc2)C(OC(C)=O)C1OC(C)=O (stereo unspecified)
155 to 156 | CCC(C)SC1=C(C#N)C(c2ccccc2)(c2ccccc2)C(=O)N1 (stereo unspecified)
97 to 98 | O=[N+]([O-])c1cccc(Cn2ccnc2)c1
142 to 144 | COc1c(NC(=O)c2ccc(-c3ccc(F)cc3)cc2)ccc2cc(CN3CCCC3)cnc12
140 to 144 | O=c1[nH]c2cccnc2n1CCCN1CCC(C(O)(c2ccc(F)cc2)c2ccccn2)CC1 (stereo unspecified)
211 to 214 | Cc1cc([N+](=O)[O-])c(CC2NC(=O)NC2=O)cc1Cl (stereo unspecified)
114 to 119 | CCCOC(=O)c1ccc2c(c1)S[C@@H](c1ccc(OC)cc1)[C@@H](OC(C)=O)C(=O)N2CCN(C)C (racemic)
200 to 202 | C#CCn1c(-c2cc(Cl)nc(Cl)c2)nc(O)c(CC)c1=O
157 to 158 | Cc1c(C)c2c(c(C)c1NC=O)CC(C)(CBr)O2 (stereo unspecified)
193 | Cc1cc(-c2cc(C(F)(F)F)n3ncc(-c4cccnc4)c3n2)ccc1Cl
110 to 112 | CC(O)(CCCc1ccc(Cl)cc1)c1ccc(OCc2ccc3ccccc3n2)cc1 (stereo unspecified)
105 | COc1ccc(NC(=O)OCCCl)c(OC)c1NC(=O)OCCCl
180 to 182 | Cc1noc(-c2cc3c(OC[C@@H](O)CN4CCC(c5ccc6ccccc6c5)CC4)cccc3s2)n1
110 to 112 | Cc1c(C)c2c(c(C)c1OCc1ccccc1)C(c1ccc(N(C)C)cc1)C(C)(C)O2 (stereo unspecified)
61 to 61.7 | FC(F)(F)c1cc(C2CCCO2)c2cccc(C(F)(F)F)c2n1 (stereo unspecified)
145 to 146 | FC(F)(F)c1nc(Cl)c2cc(I)ccc2n1
185 | COC(=O)C(C(=O)Cc1ccccc1)C1c2ccccc2C(=O)N1c1ccc2ccc(Cl)nc2n1 (stereo unspecified)
175 to 179 | CN(C)c1ncc2c(n1)-c1ccc(Cl)cc1C(c1ccccc1F)=NC2
261 to 262 | COc1cc(Nc2c(C#N)cnc3cc(-c4ccc(C=O)cc4)sc23)c(Cl)cc1Cl
92 to 95 | CC(=O)NCCCC(=O)c1ccccc1

melting point [°C] | Compound
121 | CN(C)C(=O)C=C(c1ccc(-c2ccccc2)cc1)c1ccc(-c2ccccc2)cc1
138 | CN(C)c1ccc2c(c1)CN1C(=Nc3cccnc3)SC[C@@H]1C2
99 to 102 | COc1ccc(N(C(=O)OC(C)(C)C)S(=O)(=O)c2ccc(F)cc2)cc1OC
142 | Cc1cc(NC(N)=O)cc(C)c1NC(=O)CN1CCN(CCCC(c2ccc(F)cc2)c2ccc(F)cc2)C(C(N)=O)C1 (stereo unspecified)
265 to 268 | COc1ccc2c(n1)C1(CO2)C(=O)Nc2cccc(Br)c21 (stereo unspecified)
> 300 | O=C(O)c1cn(C2COC2)c2c(F)c(F)cc(F)c2c1=O
172 to 175 | O=[N+]([O-])c1cccc(-c2nc(-c3ccccc3)cc3cccnc23)c1
210 | CC(C)(OCc1n[nH]c2ccc([N+](=O)[O-])cc12)C(=O)O
180 | CCc1c(C(=O)O)ccc(OC)c1C
136 to 137 | COC(=O)C(Cc1cc(Br)c(O)c(Br)c1)NC(=O)C(F)(F)F (stereo unspecified)
163 to 164 | O=C(OCc1cc(-c2ccccc2)c(=O)n2c1-c1sccc1CC2)N1CCOCC1
170 to 177 | COc1ccccc1N1CCN(CCCNC(=O)c2csc3c(=O)cc(C(F)(F)F)oc23)CC1
141 to 142 | CC(=O)SCC(Cc1ccccc1)C(=O)Nc1ccc(C(=O)O)c(O)c1 (stereo unspecified)
157 to 159 | N#Cc1cnn2c1N(C(=O)CCl)CCC2c1cccc(C(F)(F)F)c1 (stereo unspecified)
178 to 180 | OCCN1CCC(=C2c3ccccc3Sc3ccc(Cl)cc32)CC1
215 to 216 | Oc1cc2ccc(Br)cc2cc1C12CC3CC(CC(C3)C1)C2
104 to 109 | CCC(=O)C(C(=O)OC)C(C(=O)c1ccccc1)c1ccc(F)cc1 (stereo unspecified)
100 | O=C1Nc2ccccc2SC1CCCCBr (stereo unspecified)
149 to 150 | BrCc1ccc2ccccc2c1CBr
47.5 to 49 | CC(C)(c1ccccc1)c1cccc(S(=O)(=O)Cl)c1
166 to 167 | CC(=O)N(CCN1CCNC1=C(C#N)C#N)Cc1ccc(CN2CCCCC2)o1
97 to 99 | CCOC(=O)C(C)=Cc1cn(-c2cccnc2)c2ccccc12
205 to 207 | CS(=O)(=O)c1ccc(S(C)(=O)=O)nc1

melting point [°C] | Compound
126 to 127 | CCOC(=O)c1c(-c2ccccc2Cl)c2cc(CC)sc2[nH]c1=O
120 | COC(=O)C(C)Oc1ccc(N(C)c2nnc3cc(Cl)ccc3n2)cc1 (stereo unspecified)
165 to 167 | O=C(CN1CCN(c2ccc(NC(=O)c3ccccc3-c3ccc(C(F)(F)F)cc3)cc2)CC1)NCc1cccc(-c2ccccc2)c1
129 to 132 | C=CCN1CCC=C(c2csc(N)n2)C1
161 to 162 | Brc1ccc2c(c1)C(c1ccccc1)OC(c1ccncc1)=N2 (stereo unspecified)
232 to 233 | CN1CC(=O)Nc2cccc(Br)c2C1=O
58 to 59 | COc1cc2c(cc1Br)[C@@H](O)[C@H](Br)C(C)(C)O2 (relative stereo)
198 to 200 | O=C(O)CC1(C(=O)O)CCOc2ccc(C(=O)O)cc21 (stereo unspecified)
264 to 266 | N#Cc1cnn(-c2ccc(NN)nn2)c1N
117 to 119 | COC(=O)c1c(OCc2ccccc2)ccc2c1CC[C@@H](NC1CCC1)[C@@H]2O (relative stereo)
229 to 230 | COC(=O)C1=C(O)c2ccc3ccccc3c2S(=O)(=O)N1C
49.7 to 50.9 | C[C@@H]1CC(=O)O[C@H](CCc2ccccc2)O1
209 to 212 | O=C(O)C1=Cc2cc(-c3cccs3)ccc2OC1C(F)(F)F (stereo unspecified)
147 to 149 | CC(=O)NC[C@H]1CN(c2ccc(C3CCN(C(=O)COCc4ccccc4)CC3)c(F)c2)C(=O)O1
180 to 181 | Cc1c(C=O)c2c(c(C)c1NC(=O)CC(C)(C)C)CC(C)(C)O2
161 to 162 | COc1cc(CCCC2SC(=O)NC2=O)ccc1OCc1csc(/C=C/c2ccccc2)n1 (stereo unspecified)
110 to 112 | Cc1nc2ccc(CN(CCO)c3ccc(C(=O)NCc4cccc(C#N)c4)cc3)cc2c(=O)[nH]1
166 | C(=Nc1onc2c1CCC2)c1ccccc1
317 to 320 | Cc1nc(N)c(C#N)c(-c2ccco2)n1
172 to 177 | COc1cc2ncc(C#N)c(Nc3cccc(CSC(C)=O)c3)c2cc1OC
211 | CCc1ccccc1NC=C1C(=O)N(c2cccc(C#N)c2)N=C1C

Compound | melting point [°C]
CCC1(C)CC(C)(C)c2cc(O)ccc21 (stereo unspecified) | 86
O=C(Nc1ccc(C2=NOC(c3cc(Cl)cc(Cl)c3)(C(F)(F)F)C2)cc1)C(F)(F)F (stereo unspecified) | 45 to 52
CCOc1cc(F)cc2c1c(CCN(C)C)cn2CC | 77.1 to 78.2
CN1CCC[C@@H]1Cc1c[nH]c2ccc(CS(=O)(=O)NC(C)(C)C)cc12 | 73 to 75
